Key:
Type in all cases: cell-based
human TLR8 = molecular target: T1, human TLR8 (Homo sapiens, UniProt Q9NR97); assay: TLR8 inhibition reporter assay (HEK-Blue cells, SEAP reporter, R848 stimulation); settings: HEK-Blue cells overexpressing human TLR8, SEAP reporter, R848 15.9 μM
T1 construct: host or cells: HEK-Blue cells (HEK293-derived reporter line)
T1 sequence (Q9NR97 27-1041): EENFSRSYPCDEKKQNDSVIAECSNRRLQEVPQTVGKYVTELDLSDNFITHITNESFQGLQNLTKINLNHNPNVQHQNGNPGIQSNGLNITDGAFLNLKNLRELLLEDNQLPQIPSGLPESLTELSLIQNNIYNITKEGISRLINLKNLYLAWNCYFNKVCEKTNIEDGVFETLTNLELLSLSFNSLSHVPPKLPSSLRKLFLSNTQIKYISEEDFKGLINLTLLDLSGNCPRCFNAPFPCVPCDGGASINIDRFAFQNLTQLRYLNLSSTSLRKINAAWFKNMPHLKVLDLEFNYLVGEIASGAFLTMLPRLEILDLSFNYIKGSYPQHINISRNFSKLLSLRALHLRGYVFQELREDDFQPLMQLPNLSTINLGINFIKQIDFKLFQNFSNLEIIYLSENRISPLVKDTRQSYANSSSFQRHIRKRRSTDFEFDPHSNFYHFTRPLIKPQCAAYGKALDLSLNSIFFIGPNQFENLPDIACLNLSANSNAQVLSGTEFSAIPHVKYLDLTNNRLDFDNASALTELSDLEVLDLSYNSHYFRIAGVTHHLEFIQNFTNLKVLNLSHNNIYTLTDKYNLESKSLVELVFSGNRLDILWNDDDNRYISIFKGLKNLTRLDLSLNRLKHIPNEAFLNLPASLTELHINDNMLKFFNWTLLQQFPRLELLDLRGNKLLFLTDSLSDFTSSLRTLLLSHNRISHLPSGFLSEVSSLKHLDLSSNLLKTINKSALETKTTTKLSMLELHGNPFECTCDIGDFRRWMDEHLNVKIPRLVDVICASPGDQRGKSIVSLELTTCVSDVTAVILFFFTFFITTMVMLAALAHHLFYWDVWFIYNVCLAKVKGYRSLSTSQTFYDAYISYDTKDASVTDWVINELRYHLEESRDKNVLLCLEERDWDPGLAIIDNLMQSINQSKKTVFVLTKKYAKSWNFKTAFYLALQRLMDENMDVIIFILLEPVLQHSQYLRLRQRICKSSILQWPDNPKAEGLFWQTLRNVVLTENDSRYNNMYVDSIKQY
Method in brief: (§1)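 Cells seeded per well (15000 TLR7, 20,000 TLR8, 25,000 TLR9); compound added over 0.05 nM–50 μM for 30 min at room temperature; agonist added (TLR7 gardiquimod 7.5 μM, TLR8 R848 15.9 μM, TLR9 ODN2006 5 nM); 22 h at 37 °C; SEAP measured; percent inhibition calculated.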

human TLR9 = molecular target: T2, human TLR9 (Homo sapiens, UniProt Q9NR96); assay: TLR9 inhibition reporter assay (HEK-Blue cells, SEAP reporter, ODN2006 stimulation); settings: HEK-Blue cells overexpressing human TLR9, SEAP reporter, ODN2006 5 nM
T2 construct: host or cells: HEK-Blue cells (HEK293-derived reporter line)
T2 sequence (Q9NR96 26-1032): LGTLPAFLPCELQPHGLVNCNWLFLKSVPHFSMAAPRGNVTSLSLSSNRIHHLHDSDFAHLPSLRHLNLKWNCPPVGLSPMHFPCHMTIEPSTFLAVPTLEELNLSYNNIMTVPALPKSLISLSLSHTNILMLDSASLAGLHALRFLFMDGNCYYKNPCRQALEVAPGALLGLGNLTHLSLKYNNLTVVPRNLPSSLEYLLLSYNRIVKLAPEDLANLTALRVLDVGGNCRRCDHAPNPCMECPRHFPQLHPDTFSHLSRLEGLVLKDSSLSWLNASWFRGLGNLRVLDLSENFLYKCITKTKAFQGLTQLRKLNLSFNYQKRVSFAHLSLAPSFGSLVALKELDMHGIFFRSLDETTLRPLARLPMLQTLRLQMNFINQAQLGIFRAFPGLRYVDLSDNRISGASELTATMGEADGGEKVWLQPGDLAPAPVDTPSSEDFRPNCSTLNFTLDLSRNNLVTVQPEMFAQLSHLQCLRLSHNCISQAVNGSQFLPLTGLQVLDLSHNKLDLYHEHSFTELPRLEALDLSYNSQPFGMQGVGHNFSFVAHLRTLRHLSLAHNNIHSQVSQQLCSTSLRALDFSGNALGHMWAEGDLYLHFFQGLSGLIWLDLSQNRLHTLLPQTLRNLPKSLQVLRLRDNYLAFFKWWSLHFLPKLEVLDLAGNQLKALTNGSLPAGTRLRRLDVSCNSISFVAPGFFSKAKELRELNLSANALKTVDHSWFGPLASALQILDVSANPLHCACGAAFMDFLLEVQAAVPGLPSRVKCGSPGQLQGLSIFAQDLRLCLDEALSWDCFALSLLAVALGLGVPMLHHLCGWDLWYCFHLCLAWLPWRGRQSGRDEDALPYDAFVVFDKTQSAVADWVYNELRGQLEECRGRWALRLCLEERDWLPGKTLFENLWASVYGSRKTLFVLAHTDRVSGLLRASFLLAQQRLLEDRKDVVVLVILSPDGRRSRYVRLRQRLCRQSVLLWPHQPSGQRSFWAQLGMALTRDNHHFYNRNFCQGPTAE
Method in brief: as §1

human TLR7 = molecular target: T3, human TLR7 (Homo sapiens, UniProt Q9NYK1); assay: TLR7 inhibition reporter assay (HEK-Blue cells, SEAP reporter, gardiquimod stimulation); settings: HEK-Blue cells overexpressing human TLR7, SEAP reporter, gardiquimod 7.5 μM
T3 construct: host or cells: HEK-Blue cells (HEK293-derived reporter line)
T3 sequence (Q9NYK1 27-1049): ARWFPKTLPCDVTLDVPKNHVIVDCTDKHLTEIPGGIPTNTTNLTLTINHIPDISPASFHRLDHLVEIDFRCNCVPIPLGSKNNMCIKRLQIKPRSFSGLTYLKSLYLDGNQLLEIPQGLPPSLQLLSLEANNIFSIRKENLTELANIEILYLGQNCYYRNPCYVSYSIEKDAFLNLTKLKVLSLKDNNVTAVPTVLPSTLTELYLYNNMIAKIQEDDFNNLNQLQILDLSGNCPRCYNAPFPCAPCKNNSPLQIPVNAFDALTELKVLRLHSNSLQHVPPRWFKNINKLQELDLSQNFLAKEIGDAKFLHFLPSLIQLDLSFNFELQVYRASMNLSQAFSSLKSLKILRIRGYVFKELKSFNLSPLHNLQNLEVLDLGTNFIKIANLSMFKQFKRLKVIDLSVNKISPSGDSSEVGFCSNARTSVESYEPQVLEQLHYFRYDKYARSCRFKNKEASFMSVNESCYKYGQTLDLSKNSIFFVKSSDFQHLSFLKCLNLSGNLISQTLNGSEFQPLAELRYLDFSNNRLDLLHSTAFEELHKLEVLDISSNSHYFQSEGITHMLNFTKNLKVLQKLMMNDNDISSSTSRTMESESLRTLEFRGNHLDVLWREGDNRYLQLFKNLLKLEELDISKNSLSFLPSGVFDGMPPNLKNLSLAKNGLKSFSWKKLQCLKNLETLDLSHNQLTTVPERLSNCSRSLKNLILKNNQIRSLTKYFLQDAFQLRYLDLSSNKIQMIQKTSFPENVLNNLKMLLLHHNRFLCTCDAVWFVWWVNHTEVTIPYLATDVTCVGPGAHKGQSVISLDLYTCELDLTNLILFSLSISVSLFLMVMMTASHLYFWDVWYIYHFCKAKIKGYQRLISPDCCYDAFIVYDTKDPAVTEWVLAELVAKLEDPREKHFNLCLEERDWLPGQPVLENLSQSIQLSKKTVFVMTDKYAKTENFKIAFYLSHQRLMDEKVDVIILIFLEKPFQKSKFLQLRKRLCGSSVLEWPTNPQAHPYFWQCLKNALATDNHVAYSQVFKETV
Method in brief: as §1

SMILES | IC50 (human TLR8) [µM] | IC50 (human TLR9) [µM] | IC50 (human TLR7) [µM]
CC(C)c1c(-c2ccnc3[nH]ncc23)[nH]c2cc(F)c(C3CCN(CC4CCN(C(C)C)C4)CC3)cc12 (stereo not drawn) [Example 852, 4-(6-fluoro-3-isopropyl-5-(1-((1-isopropylpyrrolidin-3-yl)methyl)piperidin-4-yl)-1H-indol-2-yl)-1H-pyrazolo[3,4-b]pyridine] | < 0.1 | 0.1 to 1 | < 0.1
Cc1cn2c(C)cc(-c3[nH]c4ccc(C5CCN(C(=O)CN(C)C)CC5)cc4c3C(C)C)cc2n1 [Example 499, 2-(dimethylamino)-1-(4-(2-(2,5-dimethylimidazo[1,2-a]pyridin-7-yl)-3-isopropyl-1H-indol-5-yl)piperidin-1-yl)ethan-1-one] | 1 to 50 | 0.1 to 1 | 0.1 to 1
Cc1cc(-c2[nH]c3ccc(C4CCN(C(=O)CN5[C@@H]6CC[C@H]5COC6)CC4)cc3c2C(C)C)cn2nnnc12 [Example 479, 2-((1R,5S)-3-oxa-8-azabicyclo[3.2.1]octan-8-yl)-1-(4-(3-isopropyl-2-(8-methyltetrazolo[1,5-a]pyridin-6-yl)-1H-indol-5-yl)piperidin-1-yl)ethan-1-one] | < 0.1 | 1 to 50 | < 0.1
CNC(=O)CN1CCC(c2ccc3[nH]c(-c4cc(CC(C)C)n5nc(C)cc5c4)c(C(C)C)c3c2)CC1 [Example 392, 2-(4-(2-(7-isobutyl-2-methylpyrazolo[1,5-a]pyridin-5-yl)-3-isopropyl-1H-indol-5-yl)piperidin-1-yl)-N-methylacetamide] | > 3.13 | 1 to 50 | > 3.13
CC(C)c1c(-c2cnc3[nH]ncc3c2)[nH]c2ccc(C3CCN(C(=O)CN(C)C)CC3)cc12 [Example 562, 2-(dimethylamino)-1-(4-(3-isopropyl-2-(1H-pyrazolo[3,4-b]pyridin-5-yl)-1H-indol-5-yl)piperidin-1-yl)ethan-1-one] | < 0.1 | 1 to 50 | < 0.1
CC(C)c1c(-c2ccnc3[nH]ncc23)[nH]c2ccc(C3CCN(C(=O)c4cn[nH]c4)CC3)cc12 [Example 610, (4-(3-isopropyl-2-(1H-pyrazolo[3,4-b]pyridin-4-yl)-1H-indol-5-yl)piperidin-1-yl)(1H-pyrazol-4-yl)methanone] | 0.1 to 1 | 1 to 50 | 0.1 to 1
Cc1cc(-c2[nH]c3ccc(C4CCN(C5COC5)CC4)cc3c2C(C)C)cc2cccnc12 [Example 723, 6-(3-isopropyl-5-(1-(oxetan-3-yl)piperidin-4-yl)-1H-indol-2-yl)-8-methylquinoline] | 0.1 to 1 | 1 to 50 | < 0.1
CC(C)c1c(-c2ccc3nccn3c2)[nH]c2ccc(C3CCN(C4CCN(C(C)C)CC4)CC3)cc12 [Example 803, 6-(3-isopropyl-5-(1′-isopropyl-[1,4′-bipiperidin]-4-yl)-1H-indol-2-yl)imidazo[1,2-a]pyridine] | < 0.1 | 0.1 to 1 | < 0.1
Cc1cc(-c2[nH]c3ccc(C4CCNCC4)cc3c2C(C)C)c2[nH]c(C)cc2n1 [Example 40, 7-(3-isopropyl-5-(piperidin-4-yl)-1H-indol-2-yl)-2,5-dimethyl-1H-pyrrolo[3,2-b]pyridine] | 1 to 50 | 0.1 to 1 | 1 to 50
CNC(=O)CN1CCC(c2ccc3[nH]c(-c4cc(F)c5nccn5c4)c(C(C)C)c3c2)CC1 [Example 410, 2-(4-(2-(8-fluoroimidazo[1,2-a]pyridin-6-yl)-3-isopropyl-1H-indol-5-yl)piperidin-1-yl)-N-methylacetamide] | 0.1 to 1 | 1 to 50 | < 0.1
CCc1c(-c2ccnc3[nH]cc(CC)c23)[nH]c2ccc(C3CCNCC3)cc12 [Example 220, 3-ethyl-4-(3-ethyl-5-(piperidin-4-yl)-1H-indol-2-yl)-1H-pyrrolo[2,3-b]pyridine] | 0.1 to 1 | 1 to 50 | 0.1 to 1
Cc1cc(-c2[nH]c3ccc(C4CCN(C(=O)CN5CC6(COC6)C5)CC4)cc3c2C(C)C)cn2nnnc12 [Example 471, 1-(4-(3-isopropyl-2-(8-methyltetrazolo[1,5-a]pyridin-6-yl)-1H-indol-5-yl)piperidin-1-yl)-2-(2-oxa-6-azaspiro[3.3]heptan-6-yl)ethan-1-one] | < 0.1 | 1 to 50 | < 0.1
CNc1c[nH]c2nccc(-c3[nH]c4ccc(C5CCNCC5)cc4c3C)c12 [Example 210, N-methyl-4-(3-methyl-5-(piperidin-4-yl)-1H-indol-2-yl)-1H-pyrrolo[2,3-b]pyridin-3-amine] | 1 to 50 | 1 to 50 | 1 to 50
Cc1cc(-c2[nH]c3ccc(C4CCN(C(=O)CN5CCC(F)(F)CC5)CC4)cc3c2C(C)C)cn2nnnc12 [Example 482, 2-(4,4-difluoropiperidin-1-yl)-1-(4-(3-isopropyl-2-(8-methyltetrazolo[1,5-a]pyridin-6-yl)-1H-indol-5-yl)piperidin-1-yl)ethan-1-one] | 0.1 to 1 | > 50 | < 0.1
